Here are results for six compounds from patent US20250346643A1, “TROPOMYOSIN KINASE RECEPTOR (TRK) LIGANDS AS THERAPEUTICS TO SUPPORT LIVER REGENERATION” (Vanderbilt University, priority 2024, published 2025).

One data set deals with proliferating HSCs. Particulars: Gfap-Tk mice, carbon tetrachloride and allyl alcohol for 10 days, co-administration of ganciclovir; cited from earlier work.
The test system of a further data set is CCND1. The experiment in a line: Western blot of CCND1 in HepG2 cell lysates. The format is cell-based, human. The following applies: HepG2, Loxo-195 5-10 nM added to NTF3. The procedure: Human HepG2 and mouse AML12 cells were grown in 6-well plates. Cells were treated with NTF3 (20 ng/ml) purchased from STEMCELL technologies, Vancouver, Canada (cat. 78074), R&D Systems, Minneapolis, MN (267-N3), Gibco, Waltham, MA (PHC7036) and/or Loxo-195 (5-10 nM) (Selleckchem, Houston, TX; S8636) in complete growth media without L-glutamine for 2 hours. Lyophilized NTF3 was solubilized with sterile filtered PBS supplemented with 0.1% BSA, aliquoted and stored at −80° C. until use. […] HepG2 and AML12 cells were collected on ice in PBS, centrifuged for 10 sec […] cell pellet homogenized in RIPA buffer containing inhibitors (Roche, Basel, Switzerland; complete Mini proteinase inhibitor, 1×HALT phosphatase inhibitors, Thermo Scientific, Waltham, MA; cat. 78428). Cell lysates were sonicated and centrifuged for 10 min at 18,800×g. Protein concentration of supernatants were determined by Direct Detect Spectrophotometer (MilliporeSigma, Burlington, MA).
For immunoblot analysis, 30-50 μg of protein diluted in LSD sample buffer (Invitrogen, Waltham, MA) were analyzed per SDS-PAGE (NuPAGE™, Invitrogen, Waltham, MA) using MOPS buffer or MES buffer (Invitrogen, Waltham, MA). Gels were stained with Coomassie (Bio-Safe Coomassie G-250 Stain, Bio-Rad, Hercules, CA) and transferred onto PVDF membranes using semi-dry blotting (Trans-Blot SD, Bio-Rad, Hercules, CA). Images were visualized on an Amersham™ Imager 680 (Cytiva, Marlborough, MA). Semi-quantitative band densitometry was performed using ImageJ software (version 1.53).

The next data set has as its system AML12 cells. Briefly: Cell proliferation assay (CellTiter-Glo) in AML12 cells. In kind it is cell-based, mouse. Particulars: Loxo-195 final concentration 5 nM, AML12. The procedure:
(§1) Cell lines. Human HepG2 (ATCC HB-8065) were maintained in MEM media with 10% FBS and the mouse hepatocyte cell line AML12 (ATCC, Manassas, VA; CRL-2254) in DMEM/F12 media supplemented with dexamethasone (40 ng/ml) and Insulin-Transferrin-Selenium (Gibco, Waltham, MA; 41400045), containing 10% FBS and 1% penicillin and streptomycin. JS1 (RRID: CVCL_C7PL), LX2 (RRID: CVCL_5792, MilliporeSigma, Burlington, MA; SCC064) and TWNT4 (RRID: CVCL_W296) cells were cultured in DMEM supplemented with 10% FBS. 293T cells (ATCC, Manassas, VA; CRL-3216) were cultured in DMEM supplemented with 10% FBS.
(§2) Cell proliferation assays. Primary mouse hepatocytes, HepG2 or AML 12 cells were grown in opaque-walled 96-well plates. NTF3 (final concentration 20 ng/ml) (STEMCELL Technologies, Vancouver, Canada; cat. 78074) and/or Loxo-195 (final concentration 5 nM) (Selleckchem, Houston, TX; S8636) were added into complete growth media without L-glutamine. Primary mouse hepatocytes were also grown in serum-free William's E media without supplements. Cells were analyzed by CellTiter-Glo® (Promega G7570, Madison, WI) which detects the number of viable cells on day 0 to day 5 by on detection systems GloMax® (Promega) or Bioteck Synergy H1 (Agilent, Santa Clara, CA). Mouse recombinant HGF (Abcam, Cambridge, UK; ab281797) was added to cell culture media at a final concentration 5 ng/ml. […]
In general terms: In ATP-based viability assays light output follows the ATP content of the culture.

For a further data set, the system named is HepG2 cells. Briefly: Cell proliferation assay (CellTiter-Glo) in HepG2 cells. The format is cell-based, human. Particulars: Loxo-195 final concentration 5 nM, HepG2. The procedure:
as §1, §2

The test system of data set [1] is P-TRKA Tyr674/675, P-TRKB Tyr706/707. The experiment in a line: Western blot of phosphorylated TRK in HepG2 cell lysates. In kind it is cell-based, human. Particulars: HepG2, Loxo-195 added to NTF3. The procedure: Human HepG2 and mouse AML12 cells were grown in 6-well plates. […] Lyophilized NTF3 was solubilized with sterile filtered PBS supplemented with 0.1% BSA, aliquoted and stored at −80° C. until use. […] Cell lysates were sonicated and centrifuged for 10 min at 18,800×g. Protein concentration of supernatants were determined by Direct Detect Spectrophotometer (MilliporeSigma, Burlington, MA).
For immunoblot analysis, 30-50 μg of protein diluted in LSD sample buffer (Invitrogen, Waltham, MA) were analyzed per SDS-PAGE (NuPAGE™, Invitrogen, Waltham, MA) using MOPS buffer or MES buffer (Invitrogen, Waltham, MA). Gels were stained with Coomassie (Bio-Safe Coomassie G-250 Stain, Bio-Rad, Hercules, CA) and transferred onto PVDF membranes using semi-dry blotting (Trans-Blot SD, Bio-Rad, Hercules, CA). Images were visualized on an Amersham™ Imager 680 (Cytiva, Marlborough, MA).
(In western blotting, separated proteins are transferred to a membrane and probed.)

The subject of a further data set is mTOR. Briefly: Immunoblotting of mpPHH for P-S6RP and P-P70S6K (mTOR activation). In kind it is cell-based, human. The following applies: co-incubation with Torin2. The procedure:
(§3) Mouse passaged primary human hepatocytes. Mouse-passaged primary human hepatocytes (mpPHHs) were collected as previously described (Michailidis et al., Proc Natl Acad Sci USA. 2020; 117(3): 1678-1688) and cultured in hepatocyte culture media (CC-3198, Lonza, Basel, Switzerland) in collagen-coated chamber slides. Three days before treatment, mpPHH were incubated in William's E media (with L-glutamine). […] 5-15 images per treatment per experiment were randomly taken and EdU positive nuclei quantified.
(§4) Immunoblotting. […] Protein concentration of supernatants was determined by Direct Detect Spectrophotometer (MilliporeSigma, Burlington, MA). […] The protein concentration of supernatants was determined by a Direct Detect® spectrophotometer (MilliporeSigma, Burlington, MA). For immunoblot analysis, 10 to 50 μg of protein diluted in […] sample buffer (Invitrogen, Waltham, MA) were analyzed per SDS-polyacrylamide gel electrophoresis (NuPAGE™, Invitrogen, Waltham, MA) using Mops buffer or MES buffer (Invitrogen, Waltham, MA). […] Semi-quantitative band densitometry was performed using ImageJ software (version 1.53).

In data set [2] the test system is CCND1 and PCNA. The experiment in a line: Immunoblotting of mpPHH for CCND1 and PCNA. The format is cell-based, human. The following applies: mpPHHs, co-incubation with torin2. The procedure: as §3, §4
In data set [3] the test system is CCND1 and PCNA. Briefly: Immunoblotting of HDOs for CCND1 and PCNA. In kind it is cell-based, human. The following applies: co-incubation with torin2. The procedure:
Human ductal organoids. The normal human liver tissue was obtained through the Cooperative Human Tissue Network (CHTN) at Vanderbilt University Medical Center. The liver was cut into very small pieces in liver digestion medium (Gibco, Waltham, MA; 17703-034). The cell suspension was filtered through a 100-μm cell strainer. The flow through was then centrifuged for 2 min at 100 g, 4° C., and the cell pellet resuspended in ice-cold DMEM (Gibco, Waltham, MA; 11885-084, supplemented by 5% FBS) and centrifuged for 2 min at 300 g. The cell pellet was gently resuspended in Matrigel® (Corning, Corning, NY; 356231) and a […] dome plated in a 24-well plate. The plate was incubated for 10-15 min at 37° C. […]
as §4

For a further data set, the system named is mTORC1. The experiment in a line: Immunoblotting of HDOs for P-S6RP and P-P70S6K (mTORC1 activation). The format is cell-based, human. The procedure:
Human ductal organoids. The normal human liver tissue was obtained through the Cooperative Human Tissue Network (CHTN) at Vanderbilt University Medical Center. The liver was cut into very small pieces in liver digestion medium (Gibco, Waltham, MA; 17703-034). The cell suspension was filtered through a 100-μm cell strainer. The flow through was then centrifuged for 2 min at 100 g, 4° C., and the cell pellet resuspended in ice-cold DMEM (Gibco, Waltham, MA; 11885-084, supplemented by 5% FBS) and centrifuged for 2 min at 300 g. The cell pellet was gently resuspended in Matrigel® (Corning, Corning, NY; 356231) and a […] dome plated in a 24-well plate. The plate was incubated for 10-15 min at 37° C. After solidifying, complete HepatiCult™ Organoid Initiation Medium (OIM) (STEMCELL Technologies, Vancouver, Canada; 100-0384) was added. For passaging, the Matrigel dome was dissociated using TrypLE (Thermo Fisher Scientific, Waltham, MA; 12604013) and incubated at 37° C. for 5 mins. Organoids were washed by resuspending in advanced DMEM/F12 and consecutive resuspension of the organoid pellet. Organoids were resuspended at a 1:10 dilution in Matrigel® and cultured in complete HepatiCult™ Organoid Growth Medium (OGM) (STEMCELL Technologies, Vancouver, Canada; 100-0385) for organoid expansion. For hepatocytic differentiation of hepatic ductal organoids, culture medium was changed to complete HepatiCult™ Organoid Differentiation Medium (ODM) (STEMCELL Technologies, 100-0383) 4 days after passaging. Vehicle, NTF3, BDNF, HGF (20 ng/ml final concentration) or Taletrectinib (Fisher Scientific, Waltham, MA; 502030245, final concentration 10 nM) or torin2 (Fisher Scientific, Waltham, MA; s2817, final concentration 25 nM) were diluted in William's E (without L-glutamine) and added to organoids.
Immunoblotting. HDOs and mpPHH were homogenized in RIPA buffer containing proteinase inhibitors (Roche, Basel, Switzerland; cOmplete™ Mini protease inhibitor, 2 tab/10 ml buffer) and 1×HALT phosphatase inhibitors (Thermo Fisher Scientific, Waltham, MA; catalog no. 78428). Lysates were sonicated and then centrifuged for 10 min at 18,800 g. Protein concentration of supernatants was determined by Direct Detect Spectrophotometer (MilliporeSigma, Burlington, MA). HDOs were treated with growth factors as described above. Lyophilized NTF3 was solubilized with sterile-filtered PBS supplemented with 0.1% BSA, aliquoted, and stored at −80° C. until use. […] HDOs and mpPHH were collected on ice in PBS and centrifuged for 10 s, and the cell pellet was homogenized in RIPA buffer containing inhibitors (Roche, Basel, Switzerland; cOmplete™ Mini protease inhibitor, 1×HALT phosphatase inhibitors, Thermo Fisher Scientific, Waltham, MA; catalog no. 78428). Cell lysates were sonicated and centrifuged for 10 min at 18,800 g. The protein concentration of supernatants was determined by a Direct Detect® spectrophotometer (MilliporeSigma, Burlington, MA). For immunoblot analysis, 10 to 50 μg of protein diluted in […] sample buffer (Invitrogen, Waltham, MA) were analyzed per SDS-polyacrylamide gel electrophoresis (NuPAGE™, Invitrogen, Waltham, MA) using Mops buffer or MES buffer (Invitrogen, Waltham, MA). […] Semi-quantitative band densitometry was performed using ImageJ software (version 1.53).

In data set [4] the target is T1, TrkB (Homo sapiens, UniProt Q16620). The following applies: read-out: Kd (agonist of TrkB); cited from earlier work.
The conditions of data set [5]: in vivo, cited from earlier work.
Data set [6] concerns the target T1, TrkB. Particulars: read-out: IC50 for inhibition of BDNF binding to TrkB; cited from earlier work.
Data set [7] has as its target T1, TrkB. Particulars: cited from earlier work.
The target in data set [8] is TRKB (tropomyosin receptor kinase B, encoded by Ntrk2) on primary mouse hepatocytes (mouse) (UniProt P15209). The experiment in a line: cell-based or functional assay.

The Kd is the constant that tells how readily two partners part at equilibrium. What is called IC50 is the concentration that gives 50% inhibition. In general, EC50 refers to the concentration at which the effect is half-maximal.

T1 sequence (Q16620 32-822, species assumed): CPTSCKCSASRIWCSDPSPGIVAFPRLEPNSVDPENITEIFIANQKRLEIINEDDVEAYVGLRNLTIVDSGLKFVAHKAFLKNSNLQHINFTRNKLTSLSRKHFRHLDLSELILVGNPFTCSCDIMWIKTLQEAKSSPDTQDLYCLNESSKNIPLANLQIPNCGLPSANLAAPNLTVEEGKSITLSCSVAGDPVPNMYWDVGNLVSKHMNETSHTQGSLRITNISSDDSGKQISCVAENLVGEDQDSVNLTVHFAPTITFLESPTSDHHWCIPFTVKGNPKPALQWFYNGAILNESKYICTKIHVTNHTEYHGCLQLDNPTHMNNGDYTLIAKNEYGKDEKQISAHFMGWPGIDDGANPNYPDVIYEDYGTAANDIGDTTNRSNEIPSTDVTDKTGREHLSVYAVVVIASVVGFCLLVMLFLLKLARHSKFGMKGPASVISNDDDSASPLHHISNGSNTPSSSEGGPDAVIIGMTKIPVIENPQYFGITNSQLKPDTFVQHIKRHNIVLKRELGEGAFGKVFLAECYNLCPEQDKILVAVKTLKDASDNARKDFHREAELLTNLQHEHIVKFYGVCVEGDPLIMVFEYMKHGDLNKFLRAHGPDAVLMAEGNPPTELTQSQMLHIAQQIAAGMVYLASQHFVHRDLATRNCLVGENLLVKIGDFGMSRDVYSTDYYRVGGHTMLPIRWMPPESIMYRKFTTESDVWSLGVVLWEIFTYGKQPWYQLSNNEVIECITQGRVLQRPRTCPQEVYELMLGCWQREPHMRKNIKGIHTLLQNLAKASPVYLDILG
TRKB (tropomyosin receptor kinase B, encoded by Ntrk2) on primary mouse hepatocytes (mouse), sequence (P15209 32-821): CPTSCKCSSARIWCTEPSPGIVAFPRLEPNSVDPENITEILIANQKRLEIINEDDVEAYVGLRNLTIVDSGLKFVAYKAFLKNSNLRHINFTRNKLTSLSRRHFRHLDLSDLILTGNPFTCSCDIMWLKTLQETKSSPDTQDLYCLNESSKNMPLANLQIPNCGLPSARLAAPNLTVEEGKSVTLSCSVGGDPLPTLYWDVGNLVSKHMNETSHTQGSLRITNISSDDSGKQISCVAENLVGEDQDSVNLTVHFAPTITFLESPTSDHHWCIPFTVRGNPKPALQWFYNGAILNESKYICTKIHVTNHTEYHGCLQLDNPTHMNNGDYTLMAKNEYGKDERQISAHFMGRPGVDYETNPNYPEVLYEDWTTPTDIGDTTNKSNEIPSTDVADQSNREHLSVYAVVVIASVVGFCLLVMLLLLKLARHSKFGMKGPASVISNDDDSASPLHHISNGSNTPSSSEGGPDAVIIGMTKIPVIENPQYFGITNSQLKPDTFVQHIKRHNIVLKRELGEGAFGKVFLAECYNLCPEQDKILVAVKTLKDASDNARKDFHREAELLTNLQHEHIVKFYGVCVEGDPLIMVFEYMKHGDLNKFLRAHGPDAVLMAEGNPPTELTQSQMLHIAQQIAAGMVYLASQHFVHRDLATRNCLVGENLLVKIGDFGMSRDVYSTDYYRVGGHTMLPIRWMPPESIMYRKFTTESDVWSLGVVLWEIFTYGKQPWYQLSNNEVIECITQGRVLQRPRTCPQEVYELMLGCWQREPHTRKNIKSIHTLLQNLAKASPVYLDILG

Take `Nc1nc(O)c2ncn(COC(CO)CO)c2n1` [ganciclovir]: the “depletion rate of proliferating HSCs” value in the data set on proliferating HSCs is listed as “approximately 65%”.

For `C[C@@H]1CCc2ncc(F)cc2[C@H]2CCCN2c2ccn3ncc(c3n2)C(=O)N1` [Loxo-195, reference compound], in the data set on CCND1, the “effect on NTF3-induced CCND1 abundance” value is “inhibited”. Also, the “inhibition of NTF3-induced proliferation” value in the data set on AML12 cells and in the data set on HepG2 cells was “significantly inhibited proliferation” in each case. The “effect on NTF3-induced TRK phosphorylation” value in data set [1] is “decreased”.

Regarding `Nc1ccc(-c2ccc3ncc4ccc(=O)n(-c5cccc(C(F)(F)F)c5)c4c3c2)cn1` [Torin2, reference compound], in the data set on mTOR, the “effect on NTF3-induced P-S6RP and P-P70S6K” value was “inhibited”. In addition, the “effect on NTF3-induced CCND1 and PCNA” value is listed as “inhibited” in the data set on CCND1 and PCNA [2]; “inhibited” in the data set with CCND1 and PCNA [3]. Also, the “effect on NTF3- or insulin-induced phosphorylation of p70S6 kinase and S6RP” value in the data set with mTORC1 (HDO, co-incubation with Torin2 25 nM) is “decreased”. The “phosphorylated S6rp (Ser240/244)” value in the data set with mTORC1 (HDOs cultured in glutamine free media, coincubation (FIG. 18G), Torin2 25 nM) is “decreased phosphorylated S6rp”.

On to `O=c1cc(-c2ccccc2)oc2c(O)c(O)ccc12` [7,8-DHF, 7,8-dihydroxyflavone], for which the Kd on TrkB [4] is roughly 320 nM. In data set [5] (po), the oral bioavailability entry was “orally bioavailable”. Besides, in data set [5], the blood-brain barrier penetration result was “able to penetrate the blood-brain barrier”.

In the case of `O=C(NCCO)c1cc(C(=O)NCCO)cc(C(=O)NCCO)c1` [LM22A-4], the IC50 at TrkB [6] is 47 nM. For the same compound, on TrkB [7] (partial agonist of TrkB), the “intrinsic activity (IA)” value is recorded as “about 85%”. Besides, the EC50 at TrkB [7] (read-out: EC50 for TrkB activation) is 0.2 to 0.5 nM.

“recombinant neurotrophin-3 (NTF3) (from UniProt P20783 139-257) (ligand)” showed a proliferation of primary mouse hepatocytes (CellTiter-Glo), NTF3 20 ng/ml against vehicle in data set [8] of 1.5 fold.
